Reference: patent EP1078630A1, “Use of sigma receptor agonists for the treatment of depression” (WARNER-LAMBERT COMPANY, priority 1999, dated 2001)

Tests used:
Male Swiss OF1 mice = test: Forced swim test in non-operated Swiss mice (duration of immobility); format: in vivo
Method: (§1) Male Swiss OF1 mice (Breeding center of the Faculty of Pharmacy, Montpellier, France), aged 5-6 weeks and weighing 30 ± 2 g are used throughout the study. Animals are housed in plastic cages in groups. They have free access to laboratory chow and water, except during behavioral experiments, and they are kept in a regulated environment (23 ± 1°C, 40-60% humidity) under a 12-hr light/dark cycle (light on at 7:00 a.m.). Experiments are carried out between 9:00 a.m. and 6:00 p.m., in a soundproof and air-regulated experimental room, to which mice are habituated at least 30 min before each experiment.
(§2) PROG and finasteride are suspended in sesame oil; other drugs are solubilized in distilled water or saline solution. Drugs are injected subcutaneously (s.c.) or intraperitoneally (i.p.), in a volume of 100 µl per 20 g of body weight.
(§3) Each mouse is placed individually in a glass cylinder (diameter 12 cm, height 24 cm) filled with water at a height of 12 cm. Water temperature is maintained at 22-23°C. The animal is forced to swim for 15 min on the first day. Animals are then allowed to return to their home cage. On the second day, each mouse is placed again into the water and forced to swim for 6 min. The session is videotaped and the duration of immobility during the last 5 min is measured. The mouse is considered as immobile when it stops struggling and moves only to remain floating in the water, keeping its head above water. Drugs are administered 30 min before the session on the second day. Finasteride is administered twice, 14 and 2 hr before the session on day 2.
(§4) Results are expressed as means ± S.E.M. Data are analyzed using the Dunnett's multiple comparisons test after an analyzis of variance (ANOVA, F values). The criterion for statistical significance is P < 0.05.

AdX/CX Swiss mice = test: Forced swim test in adrenalectomized/castrated (AdX/CX) Swiss mice; format: in vivo; conditions: for influence of removal of circulating steroids on the antidepressant effect: AdX/CX versus non-operated mice; for effect in AdX/CX animals as compared to non-operated mice: comparison of AdX/CX with non-operated animals
Method: as §1, §2, §3
About one week after habituation to the animal facilities, animals are anaesthetized with sodium pentobarbital 2%, 100 µl/30 g body weight i.p. Both adrenal glands are removed, through incisions in the back of the animal, just below the breast ribs. The skin is sutured. Then, both testes are ligatured and cut, through an incision in the scrotum. Animals received an injection of gentamycine 10 mg/kg i.p. and recovered within few hours from surgery. After surgery, drinking tap water is replaced by saccharose 1%, NaCI 0.9% solution. Animals are used for behavioral experiments six days after surgery.
as §4

[1] = literature (Ukai et al. 1998, Matsuno et al. 1996, Tottori et al. 1997, Kinsora et al. 1998); cited from earlier work

CCCN(CCC)CCc1ccc(OC)c(OCCc2ccccc2)c1 [NE-100]
immobility time (Male Swiss OF1 mice; 1-10 mg/kg i.p. dose-range, given alone, Fig. 1C): does not affect the immobility time by itself
antagonism of the reduction of immobility time induced by igmesine (Male Swiss OF1 mice; NE-100 10 mg/kg pre-administered i.p. 15 min before igmesine, Fig. 1D): completely antagonizes the reduction of immobility time induced by igmesine
antagonism of the DHEAS-induced diminution of immobility time (Male Swiss OF1 mice; NE-100 i.p. 15 min before DHEAS, Fig. 4B): prevents the DHEAS-induced diminution of immobility time
antagonism of the antidepressant effect of DHEAS (AdX/CX Swiss mice; NE-100 i.p. 15 min before DHEAS, AdX/CX mice, Fig. 8B): fully antagonizes
antagonism of the antidepressant effect of igmesine (AdX/CX Swiss mice; NE-100 i.p. 15 min before igmesine, AdX/CX mice, Fig. 8A): fully antagonizes

CC(=O)[C@H]1CC[C@H]2[C@@H]3CC=C4C[C@@H](OS(=O)(=O)O)CC[C@]4(C)[C@H]3CC[C@]12C [PREGS]
immobility time (Male Swiss OF1 mice; 5-40 mg/kg dose range, Fig. 3B): fails to affect the immobility time

CNCCC(Oc1ccc(C(F)(F)F)cc1)c1ccccc1 (stereo not drawn) [fluoxetine]
immobility time (Male Swiss OF1 mice; 30 and 60 mg/kg i.p., Fig. 2): shortened the immobility time
antidepressant effect in the forced swim test (AdX/CX Swiss mice; AdX/CX Swiss mice, i.p. 30 min before session on day 2, Fig. 6): antidepressant effect
influence of removal of circulating steroids on the antidepressant effect (AdX/CX Swiss mice): failed to be affected by the removal of circulating steroids

C=CCN1CCC2(C)c3cc(O)ccc3CC1C2C (single isomer, unassigned; (+)) [(+)-SKF-10,047]
immobility time (Male Swiss OF1 mice; 30 mg/kg, Fig. 1B): decreases the immobility time
antidepressant effects in animal models [1]: reduce the immobility time in the forced swim test or are active in the tail suspension test

COc1ccc(CCN2CCN(CCCc3ccccc3)CC2)cc1OC [SA4503]
antidepressant effects in animal models [1]: reduce the immobility time in the forced swim test or are active in the tail suspension test

CC(=O)[C@H]1CC[C@H]2[C@@H]3CCC4=CC(=O)CC[C@]4(C)[C@H]3CC[C@]12C [PROG, progesterone]
immobility time (Male Swiss OF1 mice; 5-60 mg/kg dose range, given alone, Fig. 3C): does not affect the immobility time by itself
antagonism of the DHEAS effect on immobility time (Male Swiss OF1 mice; PROG 20-60 mg/kg pre-administered before DHEAS 10 mg/kg, Fig. 3D): significant antagonism of its effect
antagonism of the igmesine-induced reduction of immobility (Male Swiss OF1 mice; PROG pre-administered i.p. 15 min before igmesine, Fig. 4A): fully blocks the igmesine-induced reduction of immobility

CC(C)(C)NC(=O)[C@H]1CC[C@H]2[C@@H]3CC[C@H]4NC(=O)C=C[C@]4(C)[C@H]3CC[C@]12C [Finasteride, finasteride]
immobility time (AdX/CX Swiss mice; finasteride pretreatment (25 mg/kg s.c., 14 and 2 hr before session) in vehicle-treated AdX/CX mice, Fig. 5): does not affect the immobility time
effect on the diminution of immobility time induced by igmesine (AdX/CX Swiss mice; finasteride pretreatment (25 mg/kg s.c., 14 and 2 hr before), igmesine 60 mg/kg, AdX/CX mice, Fig. 5): significantly alters the diminution induced by igmesine

Cc1ccccc1NC(=N)Nc1ccccc1C [DTG]
antidepressant effects in animal models [1]: reduce the immobility time in the forced swim test or are active in the tail suspension test

COc1cccc2c1CCC(=O)N2CCCN1CCN(c2cccc(Cl)c2)CC1 [OPC14523]
antidepressant effects in animal models [1]: reduce the immobility time in the forced swim test or are active in the tail suspension test

CNCCCN1c2ccccc2CCc2ccccc21 [desipramine]
immobility time (Male Swiss OF1 mice; 30 and 60 mg/kg i.p., Fig. 2): shortened the immobility time
influence of removal of circulating steroids on the antidepressant effect (AdX/CX Swiss mice): failed to be affected by the removal of circulating steroids

C[C@]12CC[C@H](OS(=O)(=O)O)CC1=CC[C@@H]1[C@@H]2CC[C@]2(C)C(=O)CC[C@@H]12 [DHEAS]
immobility time (Male Swiss OF1 mice; 10 mg/kg dose (5-60 mg/kg range tested), Fig. 3A): slightly but significantly shortens the immobility time
immobility time (Male Swiss OF1 mice; dosages lower or higher than 10 mg/kg within 5-60 mg/kg, Fig. 3A): devoid of effect
immobility time (AdX/CX Swiss mice; AdX/CX animals, 5-60 mg/kg dose-range, Fig. 7): significant diminution of the immobility time at all the doses examined
effect in AdX/CX animals as compared to non-operated mice (AdX/CX Swiss mice): in a more efficient manner as compared to non-operated animals

CCC(C/C=C/c1ccccc1)(c1ccccc1)N(C)CC1CC1.Cl (stereo not drawn) [igmesine, (E)-(+)-N-(cyclopropylmethyl)-α-ethyl-N-methyl-α-(3-phenyl-2-propenyl)benzenemethanamine hydrochloride]
immobility time (Male Swiss OF1 mice; 60 mg/kg i.p., 30 min before session on day 2, Fig. 1A): significantly shortens the immobility time
immobility time (AdX/CX Swiss mice; AdX/CX animals, 20 and 60 mg/kg, dose-dependent, Fig. 5): shortens significantly the immobility time
effect in AdX/CX animals as compared to non-operated mice (AdX/CX Swiss mice): enhanced
antidepressant effects in animal models [1]: reduce the immobility time in the forced swim test or are active in the tail suspension test

CC(C)=CCN1CCC2(C)c3cc(O)ccc3CC1C2C (single isomer, unassigned; (+)) [(+)-pentazocine]
antidepressant effects in animal models [1]: reduce the immobility time in the forced swim test or are active in the tail suspension test
